US20240317826A1, “COMPOSITIONS AND METHODS FOR TREATING AND/OR I[…] AGENT FOR TREATING HIV-1 INFECTIONS” (priority 2021, published 2024)
“Also recorded” adds a separate entry of the source. Where two headings read alike, the source gives them in different places.

Assays:
IN-TAR RNA interaction = target: T1, IN-TAR RNA interaction (Human immunodeficiency virus type 1 group M subtype B, UniProt P04585); assay: Alpha interaction assay: effect of stapled peptides on IN-TAR RNA interaction; type: binding, HIV-1; details: in vitro
T1 construct: made in house; host or cells: bacteria (E. coli inferred from the pGEX vector)
Procedure: FIG. 8A-FIG. 8D show quantitative alpha interaction assay to determine the effect of stapled peptides on the interaction of IN and IN-CTD with INI1 and INI1183-304 or TAR RNA. […] Fixed concentrations of GST-IN, 6His-INI1, and TAR RNA were incubated with increasing concentration of stapled peptides and the interaction was detected as Alpha Score. The IC50 values were determined by fitting the data to a four-parameter dose-response curve using Graph Pad prism. All the graphs represent the average of three independent experiments (Mean+/−SEM).
AlphaScreen proximity assay to detect the protein-protein and protein-RNA interactions. AlphaScreen assay was carried out using PerkinElmer Alpha-Lisa-6His Acceptor beads (Catalogue #AL128C), Alpha-Screen-GST donor beads (Catalogue #6765300), GST-tagged and His-tagged proteins for protein-protein interactions; and Alpha-Screen Streptavidin donor beads (Catalogue #6760002 S), Alpha-Lisa-GST acceptor beads (Catalogue #AL110C), Biotin-labeled RNA and GST-tagged proteins for protein-RNA interactions. The reaction was carried out according to the manufacturer's protocol in a reaction buffer contacting (25 mM HEPES pH 7.4, 100 mM NaCl (or 500 mM NaCl), 1 mM DTT, 1 mM MgCl2 and BSA 1 mg ml/ml). The mixture of proteins or protein and RNA were incubated for 1 hr at room temperate with shaking in a multi micro-plate shaker and then 20 ag ml/ml accepter beads were added and incubated for additional 1 h with shaking. Finally, 20 ag ml^−1 of donor beads were added and further incubated for 1 hr. The Alpha score readings were measured using Alpha-compatible Envision 2105 multi-plate reader (Perkin-Elmer). All the experiments related to this method were carried out 3 to 5 times and data were analyzed by using Graph Pad Prism 9 version 9.0.0 (GraphPad Software, CA). The RNA sequences used in this assay are listed in the Table 6d and were obtained from Integrated DNA technology.
These peptides were tested for their ability to disrupt the interaction between IN-INI1 and IN-TAR RNA in vitro.

IN/TAR RNA complex = target: T2, IN/TAR RNA complex (Human immunodeficiency virus type 1 group M subtype B, UniProt P04585); assay: RNA-co-IP in 293T cells: TAR RNA bound to YFP-IN; type: cell-based, HIV-1
T2 construct: expressed in transfected cells; host or cells: 293T cells
Text: (§1) Panels d-g show the input RNA and protein levels within transfected cells: the RT-PCR analysis of input TAR RNA levels (panel d); Immunoblot analysis of input HA-INI1 (panel e); input YFP-IN (panel f); and GAPDH level for loading control (panel g). Lane 1 is RNA-co-IP using isotype IgG control antibodies and lanes 2-7 are RNA-co-IP using anti-GFP antibodies to pull down IN. There is ˜1000 fold inhibition of RNA and INI1 binding to IN in the presence of SP-38 peptide (compare lane 6 to lane 5).
For RNA-co-IP, […] were transfected with pCMV-Tat and pLTR-luc plasmids along with pYFP-IN and pCGN-INI1. Immunopreciptation was carried out as above using α-GFP (Cell Signal, Catalogue #2555; Lot #8; 5 ag/sample) antibodies. The immunecomplexes were then split into two and RNA was isolated from one half using Trizol reagent (Invitrogen Catalogue #15596026) and subjected to qRT-PCR using Early RT primers. The other half was subjected to immunoblot analysis.
(§2) To determine if stapled peptides can inhibit interaction of IN with TAR RNA in cells, we carried out RNA-co-IP experiments (FIG. 8e). YFP-IN and TAR RNA were expressed by co-transfecting plasmids pYFP-fN, pLTIR-luc and pTat in 293T cells. Cells were treated with SP-38 or SP-83 (D225G mutant) peptides. After transfection, the cell lysates were treated with DNaseI and subjected to immunoprecipitation (IP) using α-GFP antibodies to pull down YFP-IN and associated complexes. RNA was separated from the immune complexes and subjected to RT-PCR to detect bound TAR RNA (FIG. 8e, panel a). Immunoblot analysis of bound proteins were carried out using: α-HA to detect bound HA-INI1 (FIG. 8e, panel b) and α-GFP to detect YFP-IN (FIG. 8e, panel c). RT-PCR of the RNA isolated from cell lysate was used as input control (FIG. 8e, panel d). Immunoblot analysis of total proteins from cell lysates as input control were carried out using α-HA to detect input HA-INI1 (FIG. 8e, panel e), α-GFP to detect input YFP-IN (FIG. 8e, panel f), and α-GAPDH to detect GAPDH as loading control (FIG. 8e, panel g). […] Expression of both GFP-IN and TAR RNA in the cells led to successful RNA-co-IP by α-GFP antibodies (FIG. 8e, lane 5).

[1] = system: INI1 incorporation into HIV-1 virions; assay: Immunoblot of virions for incorporation of INI1; type: cell-based; details: Western analysis of concentrated virions
Text: FIG. 12A-FIG. 12C show effects of stapled peptides on virion morphogenesis and incorporation of INI1. […] The middle panel is the expanded version and the lower panel represents the carton of the two viral particles from the middle panel. Note the empty capsid shell and eccentric electron dense material, typical of morphologically defective virions. […] About 200 virions each were scored to quantify four different types of morphological forms—Conical (Co), Eccentric (Ec), Immature (Im) and Unclear (Uc).
We tested the incorporation of INI1 into the virions. Electron microscopy analysis of ˜200 particles and Western analysis of concentrated virions were carried out to determine the presence or absence of INI1 (FIG. 12b).

HIV-1NL4-3 = assay: Multiday HIV-1 replication assay in CEM-GFP cells; type: cell-based; details: CEM-GFP cells infected with HIV-1NL4-3; 1 and 5 micromolar peptide; GFP expression and p24 in culture supernatants
Text: FIG. 9A-FIG. 9C show an inhibition of HIV-1 replication by Stapled peptides in a multiday replication assay in CEM-GFP cells. […] FIG. 9B and FIG. 9C show images representing the expression of GFP in CEM GFP cells in presence or absence of 1 and 5 micromolar Stapled peptides or DMSO control. FIG. 9D and FIG. 9E show p24 ELISA analysis of culture supernatants from CEM-GFP cells from panels FIG. 9B and FIG. 9C samples. The CEM-GFP cells were infected with HIV-1NL4-3 and treated with stapled peptides. Culture supernatants were collected on multiple days as indicated and p24 analysis was carried out.
To determine if the stapled peptides can inhibit HIV-1 replication in cell culture, we used CEM-GFP cell lines, which harbor LTR-GFP as a reporter. HIV-1 infection of these cells activates GFP expression.

IN/INI1 complex = target: T3, IN/INI1 complex (Human immunodeficiency virus type 1 group M subtype B, UniProt P04585); assay: co-IP in 293T cells: HA-INI1 bound to YFP-IN; type: cell-based, HIV-1
T3 construct: expressed in transfected cells; host or cells: 293T cells
Text: as §1, §2

## lys-Leu-Met-Thr-Pro-Glu-Met-Phe-S5-Glu-Ile-Leu-S5-Cys-Gly-Leu-Asn [SP83]
IN-TAR RNA interaction
  inhibition of IN-TAR RNA interactions: not
IN/TAR RNA complex
  inhibition of IN/RNA complex formation within cells: not
IN/TAR RNA complex; RT-PCR of bound TAR RNA
  inhibition of RNA binding to IN in RNA-co-IP: not
IN/TAR RNA complex; listed as SP83 (D225G)
  inhibition of IN/RNA complex formation within cells: does not inhibit
[1]
  incorporation of INI1 into virions: incorporated
HIV-1NL4-3
  inhibition of HIV-1 propagation/replication: not
IN/INI1 complex
  inhibition of IN/INI1 complex formation within cells: not
IN/INI1 complex; listed as SP83 (D225G)
  inhibition of IN/INI1 complex formation within cells: does not inhibit

## lys-Leu-Met-Thr-Pro-Glu-Met-Phe-S5-Glu-Ile-Leu-S5-Cys-Asp-Leu-Asn [SP38]
IN-TAR RNA interaction
  IC50, inhibition of IN-TAR RNA interactions: low nanomolar
IN/TAR RNA complex
  inhibition of IN/RNA complex formation within cells: potently inhibits
[1]
  incorporation of INI1 into virions: not incorporated; also recorded: lack of INI1 incorporation into virions
HIV-1NL4-3
  inhibition of HIV-1 propagation/replication: Inhibits HIV-1 Replication at Low Micromolar Concentrations; also recorded: potently inhibited
IN/INI1 complex
  inhibition of IN/INI1 complex formation within cells: potently inhibits
IN/INI1 complex; immunoblot of bound HA-INI1
  inhibition of INI1 binding to IN: ~1000 fold
